# How the values were obtained:
# Assay in all cases: relative viability (nuclei count vs DMSO), 5 days (fraction); higher = more cells survive
# AZD6482 + Pemetrexed = compound: Cc1cc([C@@H](C)Nc2ccccc2C(=O)O)c2nc(N3CCOCC3)cc(=O)n2c1 [AZD6482] + Nc1nc2[nH]cc(CCc3ccc(C(=O)N[C@@H](CCC(=O)O)C(=O)O)cc3)c2c(=O)[nH]1 [Pemetrexed] (partner 0.2 µM)
# In short: (§1)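 Relative viability is defined as nuclei in treated wells over nuclei in vehicle wells. Duplicate plates were run and medians reported. Lung cancer cell lines in 1536-well plates were dosed by pin tool one day after seeding, with one drug or with a fixed anchor-drug dose plus five library-drug doses (not always all listed) in √10 steps, and nuclei were counted after 5 days.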
# [1] = compound: COc1cc2nc(N3CCCN(C)CC3)nc(NC3CCN(Cc4ccccc4)CC3)c2cc1OC + C[C@@H](Oc1cc(-c2cnn(C3CCNCC3)c2)cnc1N)c1c(Cl)ccc(F)c1Cl [Crizotinib] (partner 1 µM)
# In short: as §1
# [2] = compound: COc1cc2nc(N3CCCN(C)CC3)nc(NC3CCN(Cc4ccccc4)CC3)c2cc1OC + COc1cccc2cc(-c3nc([C@H]4CC[C@H](C(=O)O)CC4)n4ncnc(N)c34)[nH]c12 [OSI-027] (partner 0.5 µM)
# In short: as §1
# AZD6482 + Phenformin = compound: Cc1cc([C@@H](C)Nc2ccccc2C(=O)O)c2nc(N3CCOCC3)cc(=O)n2c1 [AZD6482] + N=C(N)NC(=N)NCCc1ccccc1 [Phenformin] (partner 250 µM)
# In short: as §1
cell line,measurement,setting,value
UMC-11,relative viability,AZD6482 + Pemetrexed; first compound 0.08 µM,0.752
same,relative viability,AZD6482 + Pemetrexed; first compound 0.253 µM,0.822
same,relative viability,AZD6482 + Pemetrexed; first compound 0.8 µM,0.811
same,relative viability,AZD6482 + Pemetrexed; first compound 2.53 µM,0.633
same,relative viability,AZD6482 + Pemetrexed; first compound 8 µM,0.738
same,relative viability,[1]; first compound 0.2 µM,0.614
same,relative viability,[1]; first compound 0.6325 µM,0.498
same,relative viability,[1]; first compound 2 µM,0.673
same,relative viability,[1]; first compound 6.325 µM,0.44
same,relative viability,[2]; first compound 0.2 µM,0.534
same,relative viability,[2]; first compound 0.6325 µM,0.461
same,relative viability,[2]; first compound 2 µM,0.398
same,relative viability,[2]; first compound 6.325 µM,0.284
same,relative viability,AZD6482 + Phenformin; first compound 0.08 µM,0.309
same,relative viability,AZD6482 + Phenformin; first compound 0.253 µM,0.292
same,relative viability,AZD6482 + Phenformin; first compound 0.8 µM,0.324
same,relative viability,AZD6482 + Phenformin; first compound 2.53 µM,0.293
same,relative viability,AZD6482 + Phenformin; first compound 8 µM,0.255

# — the supplement of paper PMC10307832
